# Square brackets hold non-standard residues; d marks the D form. Peptide text beside a SMILES is read from it. * marks the point of attachment. Asu = N[C@@H](CCCCCC(=O)O)C(=O)O; pGlu = O=C1CC[C@@H](C(=O)O)N1; NHPh = c1ccc(N*)cc1; NHOH = ON*
# Molecular target: Histone deacetylase 3 (Homo sapiens, UniProt O15379)
# Assay: Inhibition of human HDAC3 using RHKK(Ac) as substrate by fluorimetric analysis
# Settings: not given
# Chain of Histone deacetylase 3 (O15379 whole entry): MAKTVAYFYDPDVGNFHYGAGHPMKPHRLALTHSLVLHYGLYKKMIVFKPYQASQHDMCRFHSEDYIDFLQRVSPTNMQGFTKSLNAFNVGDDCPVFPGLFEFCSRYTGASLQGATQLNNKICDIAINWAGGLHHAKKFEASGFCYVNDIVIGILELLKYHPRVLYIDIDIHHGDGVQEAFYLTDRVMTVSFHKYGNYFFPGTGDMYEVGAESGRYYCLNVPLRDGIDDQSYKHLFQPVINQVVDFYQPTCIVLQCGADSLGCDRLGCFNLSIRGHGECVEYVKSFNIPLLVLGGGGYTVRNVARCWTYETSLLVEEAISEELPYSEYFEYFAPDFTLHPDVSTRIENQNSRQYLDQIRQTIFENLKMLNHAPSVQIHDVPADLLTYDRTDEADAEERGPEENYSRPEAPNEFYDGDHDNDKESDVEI
row,IC50 [nM],Compound
1,62,O=C(CCCCC[C@H](NC(=O)[C@@H]1CCC(=O)N1)C(=O)Nc1ccccc1)NO ([pGlu]-[Asu](NHOH)-NHPh)
2,5,O=C1CC[C@H](C(=O)N[C@@H](CCCCCS)C(=O)Nc2ccccc2)N1
3,88,O=C(CCCCC[C@H](NC(=O)[C@@H]1CC(=O)N1)C(=O)Nc1ccccc1)NO

# Tested on: Leishmania donovani
# Assay: Antiprotozoan activity against Leishmania donovani MHOM- ET-67/L82 amastigotes
# Format: functional, organism-based
# Settings: Leishmania donovani, MHOM- ET-67/L82; read-out: IC50
row,IC50 [nM],Compound
1,> 10000,O=C1CC[C@H](C(=O)N[C@@H](CCCCCS)C(=O)Nc2ccccc2)N1

# Tested on: NCI-H460
# Assay: Cytotoxicity against human NCI-H460 cells
# Format: functional, cell-based
# Settings: not given
row,Compound,IC50 [nM]
1,O=C(CCCCC[C@H](NC(=O)[C@@H]1CCC(=O)N1)C(=O)Nc1ccccc1)NO ([pGlu]-[Asu](NHOH)-NHPh),2200
2,O=C(CCCCC[C@H](NC(=O)[C@@H]1CC(=O)N1)C(=O)Nc1ccccc1)NO,5400

# Tested on: Giardia intestinalis
# Assay: Antiprotozoan activity against Giardia lamblia G1
# Format: functional, organism-based
# Settings: Giardia duodenalis
row,IC50 [nM],Compound
1,10700,O=C(CCCCC[C@H](NC(=O)[C@@H]1CCC(=O)N1)C(=O)Nc1ccccc1)NO ([pGlu]-[Asu](NHOH)-NHPh)
2,12300,O=C1CC[C@H](C(=O)N[C@@H](CCCCCS)C(=O)Nc2ccccc2)N1
3,12800,O=C(CCCCC[C@H](NC(=O)[C@@H]1CC(=O)N1)C(=O)Nc1ccccc1)NO

# Tested on: Plasmodium falciparum
# Assay: Antiprotozoan activity against Plasmodium falciparum NF54 IEF forms
# Format: functional, organism-based
# Settings: not given
row,IC50 [nM],Compound
1,19,O=C(CCCCC[C@H](NC(=O)[C@@H]1CCC(=O)N1)C(=O)Nc1ccccc1)NO ([pGlu]-[Asu](NHOH)-NHPh)
2,9660,O=C1CC[C@H](C(=O)N[C@@H](CCCCCS)C(=O)Nc2ccccc2)N1
3,23,O=C(CCCCC[C@H](NC(=O)[C@@H]1CC(=O)N1)C(=O)Nc1ccccc1)NO

# Tested on: Trypanosoma brucei rhodesiense
# Assay: Antiprotozoan activity against Trypanosoma brucei rhodesiense STIB 900 trypomastigotes
# Format: functional, organism-based
# Settings: not given
row,IC50 [nM],Compound
1,20000,O=C(CCCCC[C@H](NC(=O)[C@@H]1CCC(=O)N1)C(=O)Nc1ccccc1)NO ([pGlu]-[Asu](NHOH)-NHPh)
2,3230,O=C1CC[C@H](C(=O)N[C@@H](CCCCCS)C(=O)Nc2ccccc2)N1
3,6040,O=C(CCCCC[C@H](NC(=O)[C@@H]1CC(=O)N1)C(=O)Nc1ccccc1)NO

# Molecular target: T1, Polyamine deacetylase HDAC10 (Homo sapiens, UniProt Q969S8)
# T1 sequence (Q969S8 whole entry): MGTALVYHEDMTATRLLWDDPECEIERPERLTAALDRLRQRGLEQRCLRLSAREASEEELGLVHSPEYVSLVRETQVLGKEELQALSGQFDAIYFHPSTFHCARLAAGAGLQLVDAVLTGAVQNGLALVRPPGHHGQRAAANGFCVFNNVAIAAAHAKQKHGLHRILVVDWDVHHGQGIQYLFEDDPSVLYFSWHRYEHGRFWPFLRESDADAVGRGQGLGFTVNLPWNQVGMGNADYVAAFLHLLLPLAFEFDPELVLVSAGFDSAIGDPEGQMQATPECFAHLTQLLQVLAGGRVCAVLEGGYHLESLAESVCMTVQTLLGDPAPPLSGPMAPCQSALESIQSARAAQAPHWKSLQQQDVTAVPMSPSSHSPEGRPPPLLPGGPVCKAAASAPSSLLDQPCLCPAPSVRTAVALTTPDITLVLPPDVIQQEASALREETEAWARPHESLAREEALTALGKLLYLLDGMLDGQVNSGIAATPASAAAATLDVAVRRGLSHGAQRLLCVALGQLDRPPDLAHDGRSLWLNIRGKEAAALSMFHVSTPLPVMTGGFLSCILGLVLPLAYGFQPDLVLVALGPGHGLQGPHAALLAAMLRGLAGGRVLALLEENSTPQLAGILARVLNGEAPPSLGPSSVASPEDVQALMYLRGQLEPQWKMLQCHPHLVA
# Assay: Inhibition of human HDAC10 using RHKK(Ac) as substrate by fluorimetric analysis
# Settings: not given
row,IC50 [nM],Compound
1,113,O=C(CCCCC[C@H](NC(=O)[C@@H]1CCC(=O)N1)C(=O)Nc1ccccc1)NO ([pGlu]-[Asu](NHOH)-NHPh)
2,11,O=C1CC[C@H](C(=O)N[C@@H](CCCCCS)C(=O)Nc2ccccc2)N1
3,125,O=C(CCCCC[C@H](NC(=O)[C@@H]1CC(=O)N1)C(=O)Nc1ccccc1)NO

# Molecular target: T2, Protein deacetylase HDAC6 (Homo sapiens, UniProt Q9UBN7)
# T2 sequence (Q9UBN7 whole entry): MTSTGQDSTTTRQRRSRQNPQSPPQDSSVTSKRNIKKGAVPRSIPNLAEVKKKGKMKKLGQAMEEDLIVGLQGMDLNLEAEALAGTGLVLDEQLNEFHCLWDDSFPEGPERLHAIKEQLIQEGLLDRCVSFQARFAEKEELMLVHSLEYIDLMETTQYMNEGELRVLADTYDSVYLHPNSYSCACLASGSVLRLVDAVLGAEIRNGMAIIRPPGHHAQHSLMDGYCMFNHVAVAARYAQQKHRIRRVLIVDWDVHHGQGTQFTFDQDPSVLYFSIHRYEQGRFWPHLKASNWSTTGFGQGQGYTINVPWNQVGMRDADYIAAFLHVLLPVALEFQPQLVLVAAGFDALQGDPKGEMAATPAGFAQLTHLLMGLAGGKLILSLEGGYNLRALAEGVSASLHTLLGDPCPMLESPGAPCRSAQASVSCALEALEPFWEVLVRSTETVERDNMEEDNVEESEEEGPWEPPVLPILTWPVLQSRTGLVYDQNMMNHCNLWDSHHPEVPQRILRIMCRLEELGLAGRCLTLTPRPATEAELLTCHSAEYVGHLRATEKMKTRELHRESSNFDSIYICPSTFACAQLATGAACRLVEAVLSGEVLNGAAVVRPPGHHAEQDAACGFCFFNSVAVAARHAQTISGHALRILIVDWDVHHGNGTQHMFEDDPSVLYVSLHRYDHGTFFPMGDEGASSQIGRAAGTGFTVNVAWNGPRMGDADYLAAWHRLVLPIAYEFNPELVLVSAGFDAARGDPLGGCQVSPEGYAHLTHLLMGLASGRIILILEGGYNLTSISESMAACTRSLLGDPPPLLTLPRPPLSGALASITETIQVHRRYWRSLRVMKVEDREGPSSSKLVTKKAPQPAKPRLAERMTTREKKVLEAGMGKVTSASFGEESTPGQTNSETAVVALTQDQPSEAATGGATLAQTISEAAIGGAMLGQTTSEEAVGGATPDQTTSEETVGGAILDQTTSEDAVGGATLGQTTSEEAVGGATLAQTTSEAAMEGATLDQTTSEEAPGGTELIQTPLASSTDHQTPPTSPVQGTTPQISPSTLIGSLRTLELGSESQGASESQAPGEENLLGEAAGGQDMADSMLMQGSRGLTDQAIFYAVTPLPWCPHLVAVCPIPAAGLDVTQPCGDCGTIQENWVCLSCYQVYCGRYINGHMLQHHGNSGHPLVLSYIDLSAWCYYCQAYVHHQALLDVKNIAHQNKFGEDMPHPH
# Assay: Inhibition of human HDAC6 using RHKK(Ac) as substrate by fluorimetric analysis
# Settings: not given
row,IC50 [nM],Compound
1,3,O=C(CCCCC[C@H](NC(=O)[C@@H]1CCC(=O)N1)C(=O)Nc1ccccc1)NO ([pGlu]-[Asu](NHOH)-NHPh)
2,3,O=C1CC[C@H](C(=O)N[C@@H](CCCCCS)C(=O)Nc2ccccc2)N1
3,6,O=C(CCCCC[C@H](NC(=O)[C@@H]1CC(=O)N1)C(=O)Nc1ccccc1)NO

# Molecular target: Histone deacetylase 2 (Homo sapiens, UniProt Q92769)
# Sequence (Q92769 whole entry): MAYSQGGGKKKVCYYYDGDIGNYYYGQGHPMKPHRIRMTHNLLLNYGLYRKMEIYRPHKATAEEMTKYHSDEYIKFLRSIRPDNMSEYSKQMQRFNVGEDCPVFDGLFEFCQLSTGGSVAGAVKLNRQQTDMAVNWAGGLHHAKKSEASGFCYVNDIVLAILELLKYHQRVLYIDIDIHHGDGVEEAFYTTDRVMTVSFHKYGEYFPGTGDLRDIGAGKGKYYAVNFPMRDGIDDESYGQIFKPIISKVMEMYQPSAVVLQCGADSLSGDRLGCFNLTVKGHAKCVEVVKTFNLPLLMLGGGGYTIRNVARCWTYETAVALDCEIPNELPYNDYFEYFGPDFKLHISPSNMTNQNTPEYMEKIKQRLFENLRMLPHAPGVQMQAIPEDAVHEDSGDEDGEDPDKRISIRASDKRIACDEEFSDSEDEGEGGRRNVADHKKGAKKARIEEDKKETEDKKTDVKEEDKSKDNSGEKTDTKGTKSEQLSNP
# Assay: Inhibition of human HDAC2 using RHKK(Ac) as substrate by fluorimetric analysis
# Settings: not given
row,IC50 [nM],Compound
1,89,O=C(CCCCC[C@H](NC(=O)[C@@H]1CCC(=O)N1)C(=O)Nc1ccccc1)NO ([pGlu]-[Asu](NHOH)-NHPh)
2,78,O=C1CC[C@H](C(=O)N[C@@H](CCCCCS)C(=O)Nc2ccccc2)N1
3,143,O=C(CCCCC[C@H](NC(=O)[C@@H]1CC(=O)N1)C(=O)Nc1ccccc1)NO

# Tested on: Plasmodium falciparum
# Assay: Antiprotozoan activity against Plasmodium falciparum infected in mouse assessed as reduction in parasite growth at 50 mg/kg, ip QD for 4 days
# Format: functional
# Settings: 96 h, route intraperitoneal
row,Compound,inhibition in vivo at 50 mg/kg [%]
1,O=C(CCCCC[C@H](NC(=O)[C@@H]1CCC(=O)N1)C(=O)Nc1ccccc1)NO ([pGlu]-[Asu](NHOH)-NHPh),87.5

# Molecular target: T3, Histone deacetylase 8 (Homo sapiens, UniProt Q9BY41)
# T3 sequence (Q9BY41 whole entry): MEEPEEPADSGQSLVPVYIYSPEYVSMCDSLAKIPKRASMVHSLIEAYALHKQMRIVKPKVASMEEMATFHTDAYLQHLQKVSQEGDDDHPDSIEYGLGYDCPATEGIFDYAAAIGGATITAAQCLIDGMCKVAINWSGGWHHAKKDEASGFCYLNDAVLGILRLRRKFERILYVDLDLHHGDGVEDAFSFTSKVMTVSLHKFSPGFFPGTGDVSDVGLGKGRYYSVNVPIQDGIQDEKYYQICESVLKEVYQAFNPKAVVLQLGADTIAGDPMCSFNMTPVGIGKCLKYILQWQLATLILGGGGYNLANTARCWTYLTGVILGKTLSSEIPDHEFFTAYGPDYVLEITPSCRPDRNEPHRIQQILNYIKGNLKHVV
# Assay: Inhibition of human HDAC8 using RHK(Ac)K(Ac) as substrate by fluorimetric analysis
# Settings: not given
row,IC50 [nM],Compound
1,93,O=C(CCCCC[C@H](NC(=O)[C@@H]1CCC(=O)N1)C(=O)Nc1ccccc1)NO ([pGlu]-[Asu](NHOH)-NHPh)
2,281,O=C1CC[C@H](C(=O)N[C@@H](CCCCCS)C(=O)Nc2ccccc2)N1
3,137,O=C(CCCCC[C@H](NC(=O)[C@@H]1CC(=O)N1)C(=O)Nc1ccccc1)NO

# Molecular target: T4, Histone deacetylase 11 (Homo sapiens, UniProt Q96DB2)
# T4 sequence (Q96DB2 whole entry): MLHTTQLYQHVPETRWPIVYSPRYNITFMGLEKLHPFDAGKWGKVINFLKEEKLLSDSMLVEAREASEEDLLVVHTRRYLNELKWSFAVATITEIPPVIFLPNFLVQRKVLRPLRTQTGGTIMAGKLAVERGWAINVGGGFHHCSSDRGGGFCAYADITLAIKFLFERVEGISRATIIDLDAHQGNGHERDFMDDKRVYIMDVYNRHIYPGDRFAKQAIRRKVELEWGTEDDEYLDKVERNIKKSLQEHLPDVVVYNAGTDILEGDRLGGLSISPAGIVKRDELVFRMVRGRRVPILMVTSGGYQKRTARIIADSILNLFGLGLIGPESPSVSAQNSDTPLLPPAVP
# Assay: Inhibition of human HDAC11 using RHKK(Ac) as substrate by fluorimetric analysis
# Settings: not given
row,IC50 [nM],Compound
1,13,O=C(CCCCC[C@H](NC(=O)[C@@H]1CCC(=O)N1)C(=O)Nc1ccccc1)NO ([pGlu]-[Asu](NHOH)-NHPh)
2,14,O=C1CC[C@H](C(=O)N[C@@H](CCCCCS)C(=O)Nc2ccccc2)N1
3,37,O=C(CCCCC[C@H](NC(=O)[C@@H]1CC(=O)N1)C(=O)Nc1ccccc1)NO

# Tested on: L6
# Assay: Cytotoxicity against rat L6 cells
# Format: ADME, cell-based
# Settings: not given
row,Compound,IC50 [nM]
1,O=C(CCCCC[C@H](NC(=O)[C@@H]1CCC(=O)N1)C(=O)Nc1ccccc1)NO ([pGlu]-[Asu](NHOH)-NHPh),75100
2,O=C1CC[C@H](C(=O)N[C@@H](CCCCCS)C(=O)Nc2ccccc2)N1,5250
3,O=C(CCCCC[C@H](NC(=O)[C@@H]1CC(=O)N1)C(=O)Nc1ccccc1)NO,7460

# Tested on: Trypanosoma cruzi
# Assay: Antiprotozoan activity against Trypanosoma cruzi Tulahuen C4 amastigotes
# Format: functional, organism-based
# Settings: not given
row,IC50 [nM],Compound
1,48400,O=C(CCCCC[C@H](NC(=O)[C@@H]1CCC(=O)N1)C(=O)Nc1ccccc1)NO ([pGlu]-[Asu](NHOH)-NHPh)
2,25800,O=C1CC[C@H](C(=O)N[C@@H](CCCCCS)C(=O)Nc2ccccc2)N1
3,33000,O=C(CCCCC[C@H](NC(=O)[C@@H]1CC(=O)N1)C(=O)Nc1ccccc1)NO

# Molecular target: Histone deacetylase 1 (Homo sapiens, UniProt Q13547)
# Sequence (Q13547 whole entry): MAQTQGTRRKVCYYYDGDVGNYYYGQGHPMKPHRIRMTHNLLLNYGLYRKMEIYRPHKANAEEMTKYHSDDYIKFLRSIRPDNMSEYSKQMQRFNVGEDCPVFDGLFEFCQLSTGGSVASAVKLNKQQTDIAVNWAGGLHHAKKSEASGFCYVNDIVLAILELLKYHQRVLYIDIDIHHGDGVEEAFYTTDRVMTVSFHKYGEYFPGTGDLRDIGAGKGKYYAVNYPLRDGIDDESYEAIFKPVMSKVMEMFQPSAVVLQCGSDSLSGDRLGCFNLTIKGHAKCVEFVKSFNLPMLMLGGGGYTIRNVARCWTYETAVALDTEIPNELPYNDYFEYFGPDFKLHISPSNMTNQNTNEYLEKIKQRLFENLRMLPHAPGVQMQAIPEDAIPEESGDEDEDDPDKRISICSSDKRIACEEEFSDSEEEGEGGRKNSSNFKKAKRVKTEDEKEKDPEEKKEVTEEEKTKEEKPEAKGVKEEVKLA
# Assay: Inhibition of human HDAC1 using RHKK(Ac) as substrate by fluorimetric analysis
# Settings: not given
row,IC50 [nM],Compound
1,34,O=C(CCCCC[C@H](NC(=O)[C@@H]1CCC(=O)N1)C(=O)Nc1ccccc1)NO ([pGlu]-[Asu](NHOH)-NHPh)
2,13,O=C1CC[C@H](C(=O)N[C@@H](CCCCCS)C(=O)Nc2ccccc2)N1
3,59,O=C(CCCCC[C@H](NC(=O)[C@@H]1CC(=O)N1)C(=O)Nc1ccccc1)NO

# Reference: ChEMBL document CHEMBL3352629, “Hydroxamic acid based histone deacetylase inhibitors with confirmed activity against the malaria parasite” (Bioorg Med Chem Lett, 2015)
